# Data taken from the supplement of paper PMC11061612.
# What was measured:
# Assay in all cases: combination Emax (second highest fraction inhibited in the dose matrix, 72 h); higher = more inhibition; extreme values may be limits of the assay
# [1] = test system: TOV-21G (Ovarian Carcinoma)
# Summary of the method: (§1)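 Cell lines grown in DMEM/F12 or RPMI with 10% FBS were plated in 1536-well plates and held 24 hours at 37°C, 5% CO2 before 72 hours of exposure to two-drug dose matrices, with DMSO typically at 0.2%. CellTiter-Glo 2.0 luminescence gave viability, which was converted to inhibition. Vehicle wells were set to 0 and blank wells to 1. Combination Emax is the second-highest inhibition in the matrix, and Bliss excess is the observed combination effect minus the expected EA + EB − EA·EB, where EA and EB are the single-agent effects.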
# [2] = test system: RPMI-8402 (T-Lymphoblastic Leukemia)
# Summary of the method: as §1
# [3] = test system: NCI-H1435 (Non-Small Cell Lung Carcinoma)
# Summary of the method: as §1
# GCIY (Gastric Carcinoma) = test system: GCIY (Gastric Carcinoma)
# Summary of the method: as §1
# HT-144 (Melanoma) = test system: HT-144 (Melanoma)
# Summary of the method: as §1
# SK-MEL-24 (Melanoma) = test system: SK-MEL-24 (Melanoma)
# Summary of the method: as §1
# [4] = test system: GRANTA-519 (B-Cell Non-Hodgkin's Lymphoma)
# Summary of the method: as §1
# [5] = test system: SCC90 (Head and Neck Carcinoma)
# Summary of the method: as §1
# [6] = test system: SUP-HD1 (Hodgkin's Lymphoma)
# Summary of the method: as §1
# [7] = test system: NCI-H1975 (Lung Adenocarcinoma)
# Summary of the method: as §1
# [8] = test system: BT-474 (Breast Carcinoma)
# Summary of the method: as §1
# DK-MG (Glioblastoma) = test system: DK-MG (Glioblastoma)
# Summary of the method: as §1
# [9] = test system: HT-1197 (Bladder Carcinoma)
# Summary of the method: as §1
# [10] = test system: COR-L105 (Lung Adenocarcinoma)
# Summary of the method: as §1
# [11] = test system: BC-1 (B-Cell Non-Hodgkin's Lymphoma)
# Summary of the method: as §1
# [12] = test system: C2BBe1 (Colorectal Carcinoma)
# Summary of the method: as §1
# [13] = test system: NCI-H1944 (Lung Adenocarcinoma)
# Summary of the method: as §1
# [14] = test system: JURL-MK1 (Chronic Myelogenous Leukemia)
# Summary of the method: as §1
# SK-N-DZ (Neuroblastoma) = test system: SK-N-DZ (Neuroblastoma)
# Summary of the method: as §1
# [15] = test system: TK (B-Cell Non-Hodgkin's Lymphoma)
# Summary of the method: as §1
SMILES,combination Emax [1],combination Emax [2],combination Emax [3],combination Emax (GCIY (Gastric Carcinoma)),combination Emax (HT-144 (Melanoma)),combination Emax (SK-MEL-24 (Melanoma)),combination Emax [4],combination Emax [5],combination Emax [6],combination Emax [7],combination Emax [8],combination Emax (DK-MG (Glioblastoma)),combination Emax [9],combination Emax [10],combination Emax [11],combination Emax [12],combination Emax [13],combination Emax [14],combination Emax (SK-N-DZ (Neuroblastoma)),combination Emax [15]
"CN(C)CCCOc1ccc(-c2ccc3ncc4c(c3c2)n(C2CCOCC2)c(=O)n4C)cn1 [AZD0156] + C=CCn1c(=O)c2cnc(Nc3ccc(N4CCN(C)CC4)cc3)nc2n1-c1cccc(C(C)(C)O)n1 [AZD1775] (first compound max 1 µM, partner max 1 µM)",0.556,1,0.193,0.63,0.587,0.443,0.816,0.777,0.836,0.356,0.195,0.331,0.486,0.418,0.999,0.209,0.618,0.989,0.962,0.945
"CN(C)CCCOc1ccc(-c2ccc3ncc4c(c3c2)n(C2CCOCC2)c(=O)n4C)cn1 [AZD0156] + CCN(CCO)CCCOc1ccc2c(Nc3cc(CC(=O)Nc4cccc(F)c4)[nH]n3)ncnc2c1 [AZD2811] (first compound max 1 µM, 7x7, partner max 1 µM)",0.266,0.889,0.101,0.378,0.232,0.16,0.364,0.231,0.48,0.3,0.0605,0.204,0.203,0.167,0.752,0.114,0.205,0.554,0.391,0.273
"CN(C)CCCOc1ccc(-c2ccc3ncc4c(c3c2)n(C2CCOCC2)c(=O)n4C)cn1 [AZD0156] + C[C@@H]1COCCN1C2=NC(=NC(=C2)C3(CC3)[S@](=N)(=O)C)C4=C5C=CNC5=NC=C4 [AZD6738] (first compound max 1 µM, 7x7, partner max 10 µM)",0.652,0.983,0.158,0.851,0.721,0.457,0.82,0.358,0.785,0.407,0.198,0.242,0.526,0.472,0.936,0.434,0.868,0.998,0.975,0.907
"CN(C)CCCOc1ccc(-c2ccc3ncc4c(c3c2)n(C2CCOCC2)c(=O)n4C)cn1 [AZD0156] + O=C(c1cc(Cc2n[nH]c(=O)c3ccccc23)ccc1F)N1CCN(C(=O)C2CC2)CC1 [Olaparib] (first compound max 3 µM, partner max 3 µM)",0.282,0.666,0.161,0.418,0.381,0.227,0.151,0.138,0.166,0.39,0.27,0.41,0.121,0.358,0.566,0.285,0.49,0.431,0.373,0.18
"C=CCn1c(=O)c2cnc(Nc3ccc(N4CCN(C)CC4)cc3)nc2n1-c1cccc(C(C)(C)O)n1 [AZD1775] + C[C@@H]1COCCN1C2=NC(=NC(=C2)C3(CC3)[S@](=N)(=O)C)C4=C5C=CNC5=NC=C4 [AZD6738] (first compound max 1 µM, partner max 10 µM)",0.71,1,0.398,0.947,0.777,0.725,0.826,0.927,0.887,0.477,0.316,0.42,0.592,0.595,1,0.486,0.852,1,1,0.94
"C=CCn1c(=O)c2cnc(Nc3ccc(N4CCN(C)CC4)cc3)nc2n1-c1cccc(C(C)(C)O)n1 [AZD1775] + O=C(c1cc(Cc2n[nH]c(=O)c3ccccc23)ccc1F)N1CCN(C(=O)C2CC2)CC1 [Olaparib] (first compound max 1 µM, partner max 10 µM)",0.587,1,0.296,0.568,0.606,0.465,0.804,0.822,0.871,0.262,0.237,0.32,0.468,0.436,0.998,0.335,0.41,0.994,0.935,0.898
"CCN(CCO)CCCOc1ccc2c(Nc3cc(CC(=O)Nc4cccc(F)c4)[nH]n3)ncnc2c1 [AZD2811] + C=CCn1c(=O)c2cnc(Nc3ccc(N4CCN(C)CC4)cc3)nc2n1-c1cccc(C(C)(C)O)n1 [AZD1775] (first compound max 1 µM, partner max 1 µM)",0.591,1,0.143,0.41,0.634,0.414,0.798,0.752,0.841,0.364,0.125,0.285,0.481,0.331,0.989,0.274,0.471,0.995,0.96,0.901
"CCN(CCO)CCCOc1ccc2c(Nc3cc(CC(=O)Nc4cccc(F)c4)[nH]n3)ncnc2c1 [AZD2811] + C[C@@H]1COCCN1C2=NC(=NC(=C2)C3(CC3)[S@](=N)(=O)C)C4=C5C=CNC5=NC=C4 [AZD6738] (first compound max 1 µM, 7x7, partner max 10 µM)",0.56,1,0.17,0.851,0.706,0.428,0.782,0.353,0.781,0.483,0.239,0.308,0.424,0.45,0.921,0.279,0.733,1,0.96,0.901
"CCN(CCO)CCCOc1ccc2c(Nc3cc(CC(=O)Nc4cccc(F)c4)[nH]n3)ncnc2c1 [AZD2811] + O=C(c1cc(Cc2n[nH]c(=O)c3ccccc23)ccc1F)N1CCN(C(=O)C2CC2)CC1 [Olaparib] (first compound max 1 µM, 7x7, partner max 10 µM)",0.288,0.85,0.196,0.427,0.309,0.225,0.452,0.303,0.718,0.191,0.168,0.258,0.203,0.231,0.669,0.131,0.243,0.688,0.405,0.206
"CN(CCO)CC[C@H](CSc1ccccc1)Nc1ccc(S(=O)(=O)NC(=O)c2ccc(N3CCC([C@@H](O)c4ccccc4-c4ccc(Cl)cc4)CC3)cc2)cc1S(=O)(=O)C(F)(F)F [AZD4320] + C1CN(CCC1(C(=O)N[C@@H](CCO)C2=CC=C(C=C2)Cl)N)C3=NC=NC4=C3C=CN4 [Capivasertib] (first compound max 1 µM, 7x7, partner max 3 µM)",0.688,0.961,0.876,0.576,0.387,0.452,0.812,0.836,0.959,0.558,0.254,0.255,0.321,0.411,0.35,0.209,0.373,0.87,0.705,0.97
"CN(CCO)CC[C@H](CSc1ccccc1)Nc1ccc(S(=O)(=O)NC(=O)c2ccc(N3CCC([C@@H](O)c4ccccc4-c4ccc(Cl)cc4)CC3)cc2)cc1S(=O)(=O)C(F)(F)F [AZD4320] + C=CCn1c(=O)c2cnc(Nc3ccc(N4CCN(C)CC4)cc3)nc2n1-c1cccc(C(C)(C)O)n1 [AZD1775] (first compound max 1 µM, partner max 1 µM)",0.721,1,0.801,0.708,0.654,0.582,1,0.85,0.952,0.562,0.526,0.283,0.622,0.478,0.999,0.346,0.813,1,1,1
"CC(=O)c1c(C)c2cnc(Nc3ccc(N4CCNCC4)cn3)nc2n(C2CCCC2)c1=O [Palbociclib] + CN(CC[C@H](CSC1=CC=CC=C1)NC2=C(C=C(C=C2)S(=O)(=O)NC(=O)C3=CC=C(C=C3)N4CCC(CC4)[C@H](C5=CC=CC=C5C6=CC=C(C=C6)Cl)O)S(=O)(=O)C(F)(F)F)CCO [AZD4320] (first compound max 10 µM, 7x7, partner max 1 µM)",0.626,–,–,–,0.753,–,0.903,0.862,0.946,0.471,0.124,0.389,0.338,–,–,0.318,0.628,1,0.992,0.996
